According to ChEMBL document CHEMBL4414663, “Pyrazole-4-Carboxamide (YW2065): A Therapeutic Candidate for Colorectal Cancer via Dual Activities of Wnt/β-Catenin Signaling Inhibition and AMP-Activated Protein Kinase (AMPK) Activation” (J Med Chem, 2019):

Experiments:
SW480 = test: Growth inhibition of human SW480 cells by Cell-titer-fluor reagent based assay; format: functional
SW-620 = test: Induction of apoptosis in human SW620 cells assessed as late apoptotic cells level at 1 uM incubated for 48 hrs by AAD-7 and FITC-annexin-V staining based flow cytometry (reference value: 7.6%); format: functional
[1] = Toxicity in C57BL/6 mouse assessed as effect on albumin level at 100 mg/kg/day, ip for 21 days; format: organism-based; details: in vivo, 504 h

GI50 (SW480): 2.4 µM
Structure (SMILES): Cc1c(C(=O)Nc2ccc3ccccc3n2)cnn1-c1ccccc1Br
Activity (SW-620): 9.43%
Activity [1]: Non-Toxic
